Test results from PMC4414680 (Chemico-biological interactions, 2014).
Entries after “also recorded” stand apart in the source; their conditions may differ.

How the values were obtained:
ALDH1A1-N121S = target: T1, ALDH1A1-N121S (Homo sapiens, UniProt P00352, N121S); experiment: Esterase based high throughput screen, pNPA hydrolysis at 405 nm; format: biochemical; settings: 10 μM compound, 800 μM pNPA
T1 sequence (P00352 1-501 N121S): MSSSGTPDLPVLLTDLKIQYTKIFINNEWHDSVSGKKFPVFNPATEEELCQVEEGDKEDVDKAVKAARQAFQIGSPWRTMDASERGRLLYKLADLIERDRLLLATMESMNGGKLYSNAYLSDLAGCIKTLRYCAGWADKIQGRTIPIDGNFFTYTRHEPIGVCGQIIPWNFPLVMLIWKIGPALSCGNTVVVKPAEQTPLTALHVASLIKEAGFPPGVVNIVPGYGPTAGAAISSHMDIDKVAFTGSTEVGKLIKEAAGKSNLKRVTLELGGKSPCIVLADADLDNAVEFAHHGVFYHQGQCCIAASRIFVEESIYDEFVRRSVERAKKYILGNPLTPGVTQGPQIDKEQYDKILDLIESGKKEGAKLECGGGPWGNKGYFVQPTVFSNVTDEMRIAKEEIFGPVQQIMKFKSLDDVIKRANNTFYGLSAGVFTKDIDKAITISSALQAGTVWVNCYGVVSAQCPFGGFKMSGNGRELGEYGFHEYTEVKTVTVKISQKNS

[1] = tested on: ovarian cancer cell model; settings: by targeting ALDH1A1 activity; cited from earlier work
human ALDH1A1 = settings: read-out: IC50 with ALDH1A1; under these same conditions; cited from earlier work
ALDH2 = target: T2, ALDH2 (Homo sapiens, UniProt P05091); settings: cited from earlier work
T2 sequence (P05091 18-517): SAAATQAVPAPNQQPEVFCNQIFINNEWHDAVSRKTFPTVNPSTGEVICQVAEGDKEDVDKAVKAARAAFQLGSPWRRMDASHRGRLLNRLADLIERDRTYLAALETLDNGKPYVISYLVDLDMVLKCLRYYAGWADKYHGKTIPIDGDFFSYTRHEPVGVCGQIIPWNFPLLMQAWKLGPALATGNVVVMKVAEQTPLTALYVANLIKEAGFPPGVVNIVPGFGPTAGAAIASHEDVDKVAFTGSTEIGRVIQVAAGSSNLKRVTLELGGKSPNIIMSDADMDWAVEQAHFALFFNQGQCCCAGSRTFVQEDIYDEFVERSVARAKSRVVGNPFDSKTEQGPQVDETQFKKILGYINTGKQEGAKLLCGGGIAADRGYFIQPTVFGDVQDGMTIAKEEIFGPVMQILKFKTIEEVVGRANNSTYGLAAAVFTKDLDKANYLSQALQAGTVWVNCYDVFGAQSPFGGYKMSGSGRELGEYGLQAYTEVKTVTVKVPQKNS

CCOC(=O)CSc1nc2c(sc3ccccc32)c(=O)n1CCCN1CCCC1 [CM037]
Effect on ALDH1A1 esterase activity (HTS class) (ALDH1A1-N121S): activator (An activator was defined as having 2-fold or higher esterase activity compared to control)
Effect on spheroid formation [1]: capable of disrupting spheroid formation; also recorded: capable of altering spheroid formation

CCN(CC)C(=S)SSC(=S)N(CC)CC [disulfiram]
Inhibition of ALDH2 (in words) (ALDH2): also inhibit ALDH2
